Legend:
[1] = 308.15 K, 101.33 kPa, Liquid; for speed of sound: Pulse-echo method
[2] = xn = mol fraction of the nth substance listed; conditions: 308.15 K, 101 kPa, Liquid; for speed of sound: Pulse-echo method

CCC(O)CO (stereo unspecified) [1,2-butanediol]
[1]
Conditions	mass density [kg/m3]	speed of sound [m/s]	viscosity [mPa·s]
–	988.25	1422.6	30.29

CCC(O)CO (stereo unspecified) [1,2-butanediol] + O=C1CCCN1
[2]
Conditions	excess molar volume [m3/mol]	speed of sound [m/s]	viscosity [mPa·s]
x2 = 0.027	–	1426.7	28.33
x2 = 0.0473	1.3e-08	–	–
x2 = 0.0512	–	1430.5	27.12
x2 = 0.0621	1.8e-08	–	–
x2 = 0.0786	2.4e-08	–	–
x2 = 0.0797	–	1435.2	25.57
x2 = 0.0977	–	1438.2	24.38
x2 = 0.0991	2.8e-08	–	–
x2 = 0.113	3.2e-08	–	–
x2 = 0.1263	3.6e-08	–	–
x2 = 0.142	4e-08	–	–
x2 = 0.1464	–	1446.3	22.32
x2 = 0.162	4.4e-08	–	–
x2 = 0.1937	–	1454.3	20.82
x2 = 0.1973	4.7e-08	–	–
x2 = 0.2456	5e-08	–	–
x2 = 0.2794	5.2e-08	–	–
x2 = 0.3017	–	1472.5	17.81
x2 = 0.3213	5.3e-08	–	–
x2 = 0.3797	5.2e-08	–	–
x2 = 0.4034	5.1e-08	–	–
x2 = 0.4061	–	1490.3	15.69
x2 = 0.4544	5e-08	–	–
x2 = 0.4753	4.9e-08	–	–
x2 = 0.5014	4.7e-08	–	–
x2 = 0.5017	–	1507.5	14.09
x2 = 0.5226	4.4e-08	–	–
x2 = 0.5643	4.1e-08	–	–
x2 = 0.5966	3.8e-08	–	–
x2 = 0.5983	–	1524.7	12.68
x2 = 0.6244	3.6e-08	–	–
x2 = 0.6571	3.3e-08	–	–
x2 = 0.688	2.9e-08	–	–
x2 = 0.7038	–	1543.6	11.52
x2 = 0.71	2.6e-08	–	–
x2 = 0.7348	2.4e-08	–	–
x2 = 0.7619	2e-08	–	–
x2 = 0.7843	1.7e-08	–	–
x2 = 0.798	–	1561	10.78
x2 = 0.8061	1.4e-08	–	–
x2 = 0.8374	1.2e-08	–	–
x2 = 0.8484	–	1570.6	10.26
x2 = 0.8607	1.1e-08	–	–
x2 = 0.8753	1e-08	–	–
x2 = 0.8878	9e-09	–	–
x2 = 0.9038	–	1580.6	9.435
x2 = 0.9039	8e-09	–	–
x2 = 0.924	7e-09	–	–
x2 = 0.9319	–	1586.6	9.291
x2 = 0.9469	6e-09	–	–
x2 = 0.9512	–	1590.1	9.015
x2 = 0.9599	5e-09	–	–
x2 = 0.9738	–	1594.7	8.969
x2 = 0.9885	3e-09	–	–
x2 = 0.9955	2e-09	–	–

CC(O)CCO (stereo unspecified) [1,3-butanediol]
[1]
Conditions	mass density [kg/m3]	speed of sound [m/s]	viscosity [mPa·s]
–	991.28	1496	54.24

CC(O)CCO (stereo unspecified) [1,3-butanediol] + O=C1CCCN1
[2]
Conditions	excess molar volume [m3/mol]	speed of sound [m/s]	viscosity [mPa·s]
x2 = 0.0122	2e-09	–	–
x2 = 0.0261	–	1498	51.57
x2 = 0.0368	8e-09	–	–
x2 = 0.0526	–	1500.5	46.61
x2 = 0.055	2.3e-08	–	–
x2 = 0.0755	–	1502.8	44.87
x2 = 0.0812	3.4e-08	–	–
x2 = 0.0939	4.6e-08	–	–
x2 = 0.1	–	1504.8	40.88
x2 = 0.1079	5.5e-08	–	–
x2 = 0.1227	5.9e-08	–	–
x2 = 0.1447	6.3e-08	–	–
x2 = 0.1543	–	1509.2	36.15
x2 = 0.1594	6.7e-08	–	–
x2 = 0.1843	8.2e-08	–	–
x2 = 0.2041	–	1513.2	31.48
x2 = 0.2174	9.5e-08	–	–
x2 = 0.2396	1.02e-07	–	–
x2 = 0.2586	1.16e-07	–	–
x2 = 0.2859	1.25e-07	–	–
x2 = 0.3003	–	1521.1	26.19
x2 = 0.3054	1.31e-07	–	–
x2 = 0.3436	1.38e-07	–	–
x2 = 0.3606	1.42e-07	–	–
x2 = 0.3817	1.46e-07	–	–
x2 = 0.3932	–	1529.1	21.54
x2 = 0.4337	1.48e-07	–	–
x2 = 0.4571	1.49e-07	–	–
x2 = 0.4815	1.49e-07	–	–
x2 = 0.4985	–	1539	17.82
x2 = 0.519	1.48e-07	–	–
x2 = 0.5798	1.45e-07	–	–
x2 = 0.5931	1.41e-07	–	–
x2 = 0.5936	1.39e-07	–	–
x2 = 0.6015	1.38e-07	–	–
x2 = 0.603	–	1549	15.46
x2 = 0.6087	1.37e-07	–	–
x2 = 0.6204	1.33e-07	–	–
x2 = 0.6319	1.32e-07	–	–
x2 = 0.6419	1.32e-07	–	–
x2 = 0.6744	1.28e-07	–	–
x2 = 0.6903	1.22e-07	–	–
x2 = 0.6985	–	1559.4	13.17
x2 = 0.705	1.2e-07	–	–
x2 = 0.7245	1.15e-07	–	–
x2 = 0.7372	1.15e-07	–	–
x2 = 0.7679	1.07e-07	–	–
x2 = 0.7781	9.8e-08	–	–
x2 = 0.7935	–	1570.9	11.85
x2 = 0.7976	9.2e-08	–	–
x2 = 0.8132	8.3e-08	–	–
x2 = 0.8358	7.3e-08	–	–
x2 = 0.839	–	1576.8	10.81
x2 = 0.8994	–	1585.1	9.984
x2 = 0.9271	–	1589	9.739
x2 = 0.947	–	1592.3	9.44
x2 = 0.9774	–	1596.3	9.15

OCCCCO [1,4-butanediol]
[1]
Conditions	mass density [kg/m3]	speed of sound [m/s]	viscosity [mPa·s]
–	1003.95	1577.8	47.38

OCCCCO [1,4-butanediol] + O=C1CCCN1
[2]
Conditions	excess molar volume [m3/mol]	speed of sound [m/s]	viscosity [mPa·s]
x2 = 0.0144	-1e-09	–	–
x2 = 0.0265	–	1579.3	44.47
x2 = 0.0335	-2e-09	–	–
x2 = 0.0524	–	1580.6	42.37
x2 = 0.0631	-5e-09	–	–
x2 = 0.0746	–	1581.5	40.73
x2 = 0.0859	-7e-09	–	–
x2 = 0.099	–	1582.3	39.16
x2 = 0.1034	-1.2e-08	–	–
x2 = 0.1244	-1.6e-08	–	–
x2 = 0.133	-1.8e-08	–	–
x2 = 0.1495	-2.2e-08	–	–
x2 = 0.1515	–	1583.7	35.63
x2 = 0.1707	-2.4e-08	–	–
x2 = 0.1835	-2.6e-08	–	–
x2 = 0.1968	-2.7e-08	–	–
x2 = 0.197	–	1585.2	32.87
x2 = 0.2205	-2.8e-08	–	–
x2 = 0.2428	-2.9e-08	–	–
x2 = 0.2649	-2.7e-08	–	–
x2 = 0.2863	-2.6e-08	–	–
x2 = 0.2914	–	1587.8	27.93
x2 = 0.3121	-2.6e-08	–	–
x2 = 0.3339	-2.2e-08	–	–
x2 = 0.3582	-2e-08	–	–
x2 = 0.384	-1.5e-08	–	–
x2 = 0.3911	–	1589.6	23.57
x2 = 0.4202	-1.1e-08	–	–
x2 = 0.4438	-9e-09	–	–
x2 = 0.4533	–	1590.3	–
x2 = 0.4656	-7e-09	–	–
x2 = 0.4771	-4e-09	–	–
x2 = 0.4954	-2e-09	–	–
x2 = 0.5159	-2e-09	–	–
x2 = 0.5237	–	1591.3	19.22
x2 = 0.527	0	–	–
x2 = 0.5409	1e-09	–	–
x2 = 0.5644	4e-09	–	–
x2 = 0.5753	6e-09	–	–
x2 = 0.5886	7e-09	–	–
x2 = 0.5997	–	1592.6	17.1
x2 = 0.6032	8e-09	–	–
x2 = 0.6155	1e-08	–	–
x2 = 0.6273	1.3e-08	–	–
x2 = 0.6452	2e-08	–	–
x2 = 0.6685	2.2e-08	–	–
x2 = 0.6788	2.3e-08	–	–
x2 = 0.6904	–	1593.7	14.81
x2 = 0.6925	2.4e-08	–	–
x2 = 0.7159	2.5e-08	–	–
x2 = 0.7338	2.6e-08	–	–
x2 = 0.7494	2.7e-08	–	–
x2 = 0.7878	–	1595	12.92
x2 = 0.8877	–	1596.8	10.74
x2 = 0.9305	–	1598	10.14
x2 = 0.9481	–	1598.5	9.772
x2 = 0.9741	–	1599.2	9.275

CC(O)C(C)O (stereo unspecified) [2,3-butanediol]
[1]
Conditions	mass density [kg/m3]	speed of sound [m/s]	viscosity [mPa·s]
–	990.72	1456.6	51.38

CC(O)C(C)O (stereo unspecified) [2,3-butanediol] + O=C1CCCN1
[2]
Conditions	excess molar volume [m3/mol]	speed of sound [m/s]	viscosity [mPa·s]
x2 = 0.0199	1.9e-08	–	–
x2 = 0.0255	–	1458.7	46.85
x2 = 0.0339	3.3e-08	–	–
x2 = 0.0483	4.5e-08	–	–
x2 = 0.0507	–	1460.7	41.26
x2 = 0.0634	5.4e-08	–	–
x2 = 0.0737	6e-08	–	–
x2 = 0.0765	–	1463	39.43
x2 = 0.0885	7.5e-08	–	–
x2 = 0.1001	–	1466.3	37.32
x2 = 0.1008	8.2e-08	–	–
x2 = 0.1118	8.7e-08	–	–
x2 = 0.118	9.3e-08	–	–
x2 = 0.1313	9.9e-08	–	–
x2 = 0.1447	1.06e-07	–	–
x2 = 0.1489	–	1470.5	32.26
x2 = 0.1571	1.12e-07	–	–
x2 = 0.1702	1.17e-07	–	–
x2 = 0.185	1.29e-07	–	–
x2 = 0.1941	–	1475.2	28.87
x2 = 0.2191	1.39e-07	–	–
x2 = 0.2418	1.48e-07	–	–
x2 = 0.2675	1.54e-07	–	–
x2 = 0.2854	1.59e-07	–	–
x2 = 0.2955	–	1488.2	23.79
x2 = 0.3058	1.63e-07	–	–
x2 = 0.3226	1.67e-07	–	–
x2 = 0.3312	1.68e-07	–	–
x2 = 0.3459	1.71e-07	–	–
x2 = 0.3589	1.72e-07	–	–
x2 = 0.383	1.72e-07	–	–
x2 = 0.3899	–	1500.7	19.82
x2 = 0.3973	1.72e-07	–	–
x2 = 0.4043	1.73e-07	–	–
x2 = 0.4156	1.72e-07	–	–
x2 = 0.4506	1.71e-07	–	–
x2 = 0.4667	1.7e-07	–	–
x2 = 0.4926	1.69e-07	–	–
x2 = 0.5097	1.7e-07	–	–
x2 = 0.5261	1.7e-07	–	–
x2 = 0.5294	–	1520.3	16.06
x2 = 0.5431	1.67e-07	–	–
x2 = 0.5651	1.68e-07	–	–
x2 = 0.5844	1.65e-07	–	–
x2 = 0.5898	–	1529.2	14.65
x2 = 0.6052	1.6e-07	–	–
x2 = 0.6266	1.58e-07	–	–
x2 = 0.6501	1.52e-07	–	–
x2 = 0.6693	1.51e-07	–	–
x2 = 0.6894	1.45e-07	–	–
x2 = 0.6978	–	1546.9	12.54
x2 = 0.8089	–	1565.1	11.22
x2 = 0.8587	–	1573.7	10.53
x2 = 0.9067	–	1582	9.623
x2 = 0.9497	–	1590.4	9.337
x2 = 0.9702	–	1594.2	9.114

O=C1CCCN1 [2-pyrrolidinone]
[1]
Conditions	mass density [kg/m3]	speed of sound [m/s]	viscosity [mPa·s]
–	1097.14	1600	8.922
